What was measured:
[1] = tested on: female and male rats; conditions: supra-pharmacological doses, ref [47]; cited from earlier work
Excerpt: However, the in vitro ...

[2] = Mouse C-peptide in plasma after sc injection in DIO-mice; type: in vivo; conditions: 600 nmol/kg sc, P<0.05
Procedure: Before experiments were initiated, the systemic levels of mouse insulin were measured using a Rat/Mouse Insulin ELISA kit (Millipore Corp., Bilerica, MA, USA), according to manufacturer’s instructions. […] Mouse C-peptide was assayed with Rat/Mouse C-peptide 2 ELISA kit (Millipore), according to manufacturer’s instructions. […] Insulin X10 was measured in mouse plasma using a wash-LOCI assay, as also described recently. See Materials S1 for detailed information regarding these assays.
At termination of experiments whole blood was collected in EDTA-coated tubes (BD Biosciences) by cardiac puncture. Blood plasma was isolated by centrifugation for 10 min at 1500 rpm and thereafter stored at -80 °C until analysis. Mouse C-peptide was assayed with Rat/Mouse C-peptide 2 ELISA kit (Millipore) according to manufacturer’s instructions. […] In initial tests the sensitivity and specificity of the assay in mouse plasma was confirmed. […] After incubation for another 30 min at 21-22 °C chemiluminescence was measured in an Envision plate reader (Perkin Elmer). […] Finally 10 µl of streptavidin coated donor beads were added, incubated as above and immediately after this chemiluminescence was measured using an Envision plate reader. […]

[3] = cited from earlier work
Excerpt: Further studies are needed to clarify if this effect is also observed during other experimental conditions. However, our in vivo data for ...

[4] = tested on: female Sprague Dawley rats; conditions: rat, in vivo; cited from earlier work
[5] = tested on: insulin receptor (IR); conditions: cited from earlier work
[6] = tested on: IGF-1 receptor (IGF-1R); conditions: ref [10], [11]; cited from earlier work
[7] = tested on: P-Akt (Ser473); test: Signalling in MC38 cells, Western blot P-Akt; type: cell-based, mouse; conditions: covers both Akt (Ser473) and p70S6K (Thr389)
Procedure: MC38 cells (mouse cell line described by Corbett et al. (1975) and generously provided by Dr. Pnina Brodt, McGill University, Montreal, QC) and MCF-7 cells (ATCC, Manassas, VA, USA), were cultivated in DMEM medium containing 4.5 g/l glucose (Wisent Inc., Montreal, QC, Canada) supplemented with 10% (v/v) fetal bovine serum (FBS, Invitrogen) and 20 μg/ml gentamicin (Sandoz Canada, Boucherville, QC, Canada) (i.e., growth medium). Cells used in animal experiments were trypsinized, washed once in PBS and resuspended in PBS (4°C) at a concentration of 5.0 × 10^6 cells/ml and kept on ice until sc injection in the mice. For signalling experiments MC38 cells were cultivated in growth medium for two days until 80-90% confluent, cell cultures were then rinsed once in PBS (room temperature), and starvation medium (similar to growth medium, except it contained only 0.25% (v/v) FBS and no phenol red) was added for 3 h. […] Each signalling experiment comprised two replicate samples per treatment and three independent experiments were performed. […] Data describing IR and IGF-1R expression in various mouse tissues were analysed in a one-way ANOVA followed by pairwise comparisons between tissues using multiple t-test with Bonferroni correction.

Which “Incidence of mammary carcinoma and pheochromocytoma” value [1] does the source give for “IGF-1: recombinant human IGF-1 (Increlex, IPSEN Pharma GmbH)” here?
The value was “increased the incidence”.

Which “Levels of C-peptide in plasma 0.5 h after treatment compared to >5 h” value [2] does the source give for human insulin [HI] here?
Its value is “significantly decreased”.

Which “Mitogenic potency relative to HI, some cell lines” value ([3]; ref [10], [13], [46]) does the source give for insulin analog B10Asp [X10] here?
Its value is 10 fold.

What about the “Mitogenic potential relative to HI in vitro” value ([3]; ref [14]) of the same substance?
Its value is 3–15 fold.

What about the “Incidence of spontaneous mammary tumors” value [4] of the same substance?
The value was “increased the incidence”.

And the “Levels of C-peptide in plasma 0.5 h after treatment compared to >5 h” value [2]?
The value was “significantly decreased”.

And the “Increase of binding affinity to the insulin receptor (vs human insulin)” value ([5]; ref [10], [11])?
Its value is 2 fold.

And the “Off-rate from the IR compared to native human insulin” value ([5]; ref [12])?
Its value is “decreased off-rate”.

And the “Increase of binding affinity to the IGF-1 receptor (vs human insulin)” value [6]?
Its value is 3- to 5 fold.

And the “Increase of phosphorylation of Akt (Ser473) and p70S6K (Thr389) compared to HI” value [7]?
Its value is 35–90%.
